Laboratory results reported in ChEMBL document CHEMBL1201862, “PubChem BioAssay data set” (2004).
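These data come from cells grown in 96-well plates and exposed to compound for 48 hours at five concentrations. GI50 marks 50% less growth.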 The source made the active and inactive calls. Rule as the data show it: active = GI50 up to about 1.1 µM and inactive = higher.

Assays:
Assay in all cases: NCI-60 cell line screen, 48 h
SNB-75 = tested on: SNB-75
M14 = tested on: M14
OVCAR-8 = tested on: OVCAR-8
SF-268 = tested on: SF-268
SNB-19 = tested on: SNB-19
RPMI-8226 = tested on: RPMI-8226
SW-620 = tested on: SW-620
CAKI-1 = tested on: CAKI-1
SF-539 = tested on: SF-539
SNB-78 = tested on: SNB-78
DLD-1 = tested on: DLD-1
EKVX = tested on: EKVX
OVCAR-3 = tested on: OVCAR-3
A549 = tested on: A549
Malme-3M = tested on: Malme-3M
HOP-92 = tested on: HOP-92
HCT-116 = tested on: HCT-116
M19-MEL = tested on: M19-MEL
HT-29 = tested on: HT-29
HCC 2998 = tested on: HCC 2998
TK-10 = tested on: TK-10
COLO 205 = tested on: COLO 205
HL-60 = tested on: HL-60
NCI-H460 = tested on: NCI-H460
HOP-62 = tested on: HOP-62
A498 = tested on: A498
SK-MEL-28 = tested on: SK-MEL-28
DMS-273 = tested on: DMS-273
SK-MEL-2 = tested on: SK-MEL-2
ACHN = tested on: ACHN
K562 = tested on: K562
KM12 = tested on: KM12
786-0 = tested on: 786-0
UACC-62 = tested on: UACC-62
UACC-257 = tested on: UACC-257
DMS-114 = tested on: DMS-114
CCRF-CEM = tested on: CCRF-CEM
IGROV-1 = tested on: IGROV-1
HCT-15 = tested on: HCT-15
MOLT-4 = tested on: MOLT-4
XF498 = tested on: XF498
HOP-18 = tested on: HOP-18
SF-295 = tested on: SF-295
OVCAR-4 = tested on: OVCAR-4
LXFL 529 = tested on: LXFL 529
SK-MEL-5 = tested on: SK-MEL-5
SN12C = tested on: SN12C
RXF 393 = tested on: RXF 393
KM-20L2 = tested on: KM-20L2
U-251 = tested on: U-251
NCI-H23 = tested on: NCI-H23
OVCAR-5 = tested on: OVCAR-5
SK-OV-3 = tested on: SK-OV-3
RXF 631 = tested on: RXF 631
SR = tested on: SR
LOX IMVI = tested on: LOX IMVI
NCI-H226 = tested on: NCI-H226
UO-31 = tested on: UO-31
NCI-H522 = tested on: NCI-H522

Structure (SMILES): O=c1cc[nH]c2ccc3nn[nH]c3c12
- GI50 (SNB-75): > 100 µM (inactive)
- GI50 (M14): > 100 µM (inactive)
- GI50 (OVCAR-8): > 100 µM (inactive)
- GI50 (SF-268): > 100 µM (inactive)
- GI50 (SNB-19): > 100 µM (inactive)
- GI50 (RPMI-8226): > 100 µM (inactive)
- GI50 (SW-620): > 100 µM (inactive)
- GI50 (CAKI-1): > 100 µM (inactive)
- GI50 (SF-539): > 100 µM (inactive)
- GI50 (SNB-78): > 100 µM (inactive)
- GI50 (DLD-1): > 100 µM (inactive)
- GI50 (EKVX): > 100 µM (inactive)
- GI50 (OVCAR-3): > 100 µM (inactive)
- GI50 (A549): > 100 µM (inactive)
- GI50 (Malme-3M): > 100 µM (inactive)
- GI50 (HOP-92): > 100 µM (inactive)
- GI50 (HCT-116): > 100 µM (inactive)
- GI50 (M19-MEL): > 100 µM (inactive)
- GI50 (HT-29): > 100 µM (inactive)
- GI50 (HCC 2998): > 100 µM (inactive)
- GI50 (TK-10): > 100 µM (inactive)
- GI50 (COLO 205): > 100 µM (inactive)
- GI50 (HL-60): > 100 µM (inactive)
- GI50 (NCI-H460): > 100 µM (inactive)
- GI50 (HOP-62): > 100 µM (inactive)
- GI50 (A498): > 100 µM (inactive)
- GI50 (SK-MEL-28): > 100 µM (inactive)
- GI50 (DMS-273): > 100 µM (inactive)
- GI50 (SK-MEL-2): > 100 µM (inactive)
- GI50 (ACHN): > 100 µM (inactive)
- GI50 (K562): > 100 µM (inactive)
- GI50 (KM12): > 100 µM (inactive)
- GI50 (786-0): > 100 µM (inactive)
- GI50 (UACC-62): > 100 µM (inactive)
- GI50 (UACC-257): > 100 µM (inactive)
- GI50 (DMS-114): > 100 µM (inactive)
- GI50 (CCRF-CEM): > 100 µM (inactive)
- GI50 (IGROV-1): > 100 µM (inactive)
- GI50 (HCT-15): > 100 µM
- GI50 (MOLT-4): > 100 µM (inactive)
- GI50 (XF498): > 100 µM (inactive)
- GI50 (HOP-18): > 100 µM (inactive)
- GI50 (SF-295): > 100 µM (inactive)
- GI50 (OVCAR-4): > 100 µM (inactive)
- GI50 (LXFL 529): > 100 µM (inactive)
- GI50 (SK-MEL-5): > 100 µM (inactive)
- GI50 (SN12C): > 100 µM (inactive)
- GI50 (RXF 393): > 100 µM (inactive)
- GI50 (KM-20L2): > 100 µM (inactive)
- GI50 (U-251): > 100 µM (inactive)
- GI50 (NCI-H23): > 100 µM (inactive)
- GI50 (OVCAR-5): > 100 µM (inactive)
- GI50 (SK-OV-3): > 100 µM (inactive)
- GI50 (RXF 631): > 100 µM (inactive)

Structure (SMILES): CCOC(=O)C1C(c2ccccc2)=C(c2ccccc2)C(c2ccccc2)=C1c1ccccc1
- GI50 (SNB-75): 13.2 µM (inactive)
- GI50 (M14): 57.4 µM (inactive)
- GI50 (OVCAR-8): 25.7 µM (inactive)
- GI50 (SF-268): 43 µM (inactive)
- GI50 (SNB-19): 18.8 µM (inactive)
- GI50 (RPMI-8226): 19.6 µM (inactive)
- GI50 (SW-620): 81.5 µM (inactive)
- GI50 (CAKI-1): > 65.3 µM (inactive)
- GI50 (SF-539): 29.7 µM (inactive)
- GI50 (SNB-78): 27.5 µM (inactive)
- GI50 (DLD-1): > 100 µM (inactive)
- GI50 (EKVX): > 88.3 µM (inactive)
- GI50 (OVCAR-3): 26.3 µM (inactive)
- GI50 (A549): 33.7 µM (inactive)
- GI50 (Malme-3M): 40.9 µM (inactive)
- GI50 (HOP-92): 12.4 µM (inactive)
- GI50 (HCT-116): 20.8 µM (inactive)
- GI50 (M19-MEL): 41.4 µM (inactive)
- GI50 (HT-29): > 100 µM (inactive)
- GI50 (HCC 2998): > 100 µM (inactive)
- GI50 (TK-10): 23.4 µM (inactive)
- GI50 (COLO 205): > 100 µM (inactive)
- GI50 (HL-60): 57.1 µM (inactive)
- GI50 (NCI-H460): 51.8 µM (inactive)
- GI50 (HOP-62): 12.6 µM (inactive)
- GI50 (A498): 20 µM (inactive)
- GI50 (SK-MEL-28): 54.1 µM (inactive)
- GI50 (SR): 46.8 µM (inactive)
- GI50 (DMS-273): 31.3 µM (inactive)
- GI50 (SK-MEL-2): 26.9 µM (inactive)
- GI50 (ACHN): 28.6 µM (inactive)
- GI50 (K562): 35 µM (inactive)
- GI50 (KM12): > 100 µM (inactive)
- GI50 (786-0): 21 µM (inactive)
- GI50 (LOX IMVI): 58.9 µM (inactive)
- GI50 (UACC-62): 19.3 µM (inactive)
- GI50 (UACC-257): > 94.6 µM (inactive)
- GI50 (DMS-114): 27.8 µM (inactive)
- GI50 (CCRF-CEM): > 79.3 µM (inactive)
- GI50 (IGROV-1): 29.2 µM (inactive)
- GI50 (HCT-15): 72.1 µM
- GI50 (MOLT-4): 50 µM (inactive)
- GI50 (XF498): 21.9 µM (inactive)
- GI50 (HOP-18): 23.7 µM (inactive)
- GI50 (SF-295): 23.6 µM (inactive)
- GI50 (OVCAR-4): 18.2 µM (inactive)
- GI50 (LXFL 529): 41.8 µM (inactive)
- GI50 (SK-MEL-5): 46.7 µM (inactive)
- GI50 (NCI-H226): > 39.2 µM (inactive)
- GI50 (SN12C): 50.7 µM (inactive)
- GI50 (RXF 393): 15.3 µM (inactive)
- GI50 (KM-20L2): > 100 µM (inactive)
- GI50 (U-251): 21.2 µM (inactive)
- GI50 (NCI-H23): 34.2 µM (inactive)
- GI50 (UO-31): 45.9 µM (inactive)
- GI50 (OVCAR-5): > 100 µM (inactive)
- GI50 (SK-OV-3): 22.6 µM (inactive)
- GI50 (NCI-H522): 49.8 µM (inactive)
- GI50 (RXF 631): 50.5 µM (inactive)
